Measurements reported in patent US20240351960A1, “METHOD FOR PRODUCING […] THIO[…], AND USE OF COMPOUND IN NITROGEN FERTILIZER FORMULATIONS” (NOVAEM BBTRADE, priority 2021, published 2024).
Values joined by “and” are separate entries in the source; they are usually repeats but may differ in a detail not shown here. Equal values may be shown once.

Key:
urease [1] = test: Volatilization of urea from garden soil treated with urea containing PTA (Example 2); conditions: garden soil 1500 g, urea containing 0.1 wt % PTA (as third precipitate, at least 75% PTA), after four days, mass percent; control without PTA 15.4%
Procedure: Three 1500 g samples of garden soil were prepared, placed in airtight containers. One sample was treated with urea containing no PTA, and two samples with urea containing 0.1 wt % PTA. The amount of urea was the same for each sample. The PTA was the “third precipitate” within the meaning of the object of the present invention. It contained at least 75% by weight of PTA; the indication “0.1% by mass of PTA” refers here to the total mass of the third precipitate and not to the pure PTA which it contains.
Each soil sample was treated with 250 g of water before depositing the urea samples treated or not with PTA on the surface. The volatilization of urea was determined after four days, expressed in mass percent. For this, a current of air was conveyed above each sample using a membrane pump, and this air was led through a citric acid solution which fixes the ammonia by transforming it into ammonium. The citric acid solution was then titrated with a sodium hydroxide solution to calculate the amount of ammonia that had reacted with the citric acid solution. From the quantity of ammonia, the quantity of urea having generated it is calculated.
In this test, the earth was taken from a single location, and the containers were stored side by side in the same room. It can therefore be assumed that each batch was exposed to the same experimental conditions.

urease [2] = test: Rate of urea volatilization from agricultural earth treated with urea fertilizer containing PTA (Examples 4 and 5); conditions: after four days; for rate of urea volatilization: control 45.81%
Procedure: Three identical samples of agricultural earth were supplied. A first sample of this earth was treated with a urea fertilizer containing 0.2% by weight of the third precipitate. This precipitate contained at least 75% by weight of PTA; the indication “0.2% by mass of PTA” refers here to the total mass of the third precipitate and not to the pure PTA which it contains. A second sample of this earth was treated with the same quantity of the same fertilizer comprising 0.2% by mass of TPTA (in the sense indicated above for PTA). The third earth sample was treated with the same amount of the same fertilizer containing no urease inhibitor. The rate of urea volatilization was determined after four days of exposure:
Following the test described in Example 4, the dose effect of the PTA was determined by treating identical agricultural earth samples with a urea fertilizer comprising 0.05%, 0.1% and 0.2% by mass of PTA (in the sense indicated above: quantity of third precipitate).

NP(N)(N)=O [PTA, phosphoryl triamide]
volatilization of urea (urease [1]): 1.5% and 3.05%
volatilization of urea is reduced by (urease [2]; 0.2% by mass of PTA, versus control): approximately 75%
rate of urea volatilization (urease [2]; urea fertilizer with 0.05% by mass of PTA (quantity of third precipitate)): 34.19%
rate of urea volatilization (urease [2]; urea fertilizer with 0.1% by mass of PTA (quantity of third precipitate)): 29.56%
rate of urea volatilization (urease [2]; urea fertilizer, printed as 0.02% PTA (quantity of third precipitate)): 11.55%
